# Experimental data: patent publication US8008354B2, “Death receptor sensitizing compounds and methods of use therefor” (Burnham Institute for Medical Research, priority 2006, dated 2011)
# Legend:
# [1] = system: PPC-1, OVCAR-3, T47D, MDA-MB-468 and DU 145 cells; assay: MTS viability with CH-11 after FLIP siRNA transfection; assay type: cell-based; settings: PPC-1 cells transfected with FLIP siRNA 10 nM
# Procedure: FIG. 8. Decreases in FLIP by compound 5809354 are functionally important. (A) PPC-1, OVCAR-3, T47D, and DU 145 cells (2×10^5) were seeded into 35 mm plates and transfected with double-stranded siRNA targeting FLIP (f), control ds RNA (c), or mock transfected with buffer alone (m). At 24 hours after transfection, cells were treated with CH-11 (100 ng/mL) or buffer control. Cell viability was measured by an MTS assay and expressed as a percentage of untreated control cells (mean+SD; n=3). (B) Levels of FLIP protein were measured by immunoblotting. (C) PPC-1 cells (2×10^5) were seeded into 35 mm plates and transfected with siRNAs (10 nM) targeting FLIP or luciferase as a control (CNTRL). At 24 hours after transfection, cells were treated with increasing concentrations of 5809354 with or without CH-11 anti-FAS antibody (100 ng/mL) for an additional 24 hours. Cell viability was measured by an MTS assay, and expressed as a percentage of control untreated cells (mean+SD; n=3).
# Transfection of siRNA oligonucleotides. […]
# To test the functional importance of decreases in FLIP by 5809354, it was determined whether knocking down FLIP could recapitulate the activity of the molecule and abrogate 5809354's ability to sensitize cells to CH-11. […]
# [2] = system: caspase 8; assay: Caspase activation in PPC-1 cells (FITC-labeled peptides, caspase 8 immunoblot); assay type: cell-based, human; settings: 60 μM
# Procedure: FIG. 15. 5809354 sensitizes cells to anoikis through a caspase 8 dependent mechanism. (A) PPC-1 cells (5×10^4) were cultured under suspension conditions overnight and then treated with 5809354 in the presence or absence of the pan-caspase inhibitor z-VAD-fink (100 μM). Thirty hours after incubation, anoikis was determined by flow cytometry to detect cell surface annexin V expression and PI uptake. Data represents the mean±SEM percent of viable cells or colonies compared to untreated controls. (B) PPC-1 cells (5×10^4) were cultured in suspension conditions overnight and then treated with 5809354 (60 μM). At increasing times after treatment, caspase activation was detected with FITC-labeled peptides that bind preferentially and irreversibly to caspase 3/7, 8, or 9. Caspase activation was monitored by flow cytometry to quantify the percentage of fluorescently labeled cells. […] At increasing times after incubation, total cellular protein was isolated and analyzed by SDS-PAGE immunoblotting using anti-caspase 8 and anti-actin antibodies. * indicates cleaved caspase 8. […] Thirty hours after incubation, apoptosis was measured by cell surface annexin V expression and PI uptake. […] Ten hours after incubation, cell viability was measured using the MTS assay. […] EGFP expression and nuclear morphology were analyzed by fluorescence microscopy. […]
substance,measurement,setting,value
4-(4-chloro-2-methylphenoxy)-N-hydroxybutanamide [compound 5809354],enhancement of CH-11-mediated killing in the presence of FLIP siRNA,[1],the longer enhanced CH-11-mediated killing
same,sequence of caspase activation,[2]; suspension conditions,Active caspase 8 was detected prior to activation of caspases 3/7 and 9
same,caspase 8 activation by immunoblot,[2]; suspension versus adherent conditions,preferentially activated caspase 8 in cells cultured under suspension but not adherent conditions
